Our source for the AUC(0-inf) and Cmax values is paper PMC7354843 (Journal of medicinal chemistry, 2020).

This data set is described as follows: In vivo pharmacokinetic study, plasma and liver, single oral dose in mice. The conditions noted are these: male, ICR, mouse, plasma, 80 mg/kg.

In turn, `O=c1c2ccc(Oc3ccc(OC(F)(F)F)cc3)cc2[nH]c2cc(Cl)cc(F)c12` [Compound 26, 3-Chloro-1-fluoro-6-(4-(trifluoromethoxy)phenoxy)acridin-9(10H)-one] had an AUC(0-inf) of 0.508 µg·h/mL and a Cmax of 0.0172 µg/mL.

For orientation: AUC(0-inf) means total exposure, with the tail of the curve extrapolated. Lower therefore signals low exposure. One may read the Cmax as the peak of the concentration-time curve.
